Values belong to the molecule of their own block, whether it stands above or below them.
What was measured:
Type in all cases: biochemical
thermolysin = biological target: T1, thermolysin (Bacillus thermoproteolyticus, UniProt P00800); test: Inhibition of thermolysin; conditions: Conc. 5.0 × 10^-4 M
T1 construct: purchased
T1 sequence (P00800 233-548): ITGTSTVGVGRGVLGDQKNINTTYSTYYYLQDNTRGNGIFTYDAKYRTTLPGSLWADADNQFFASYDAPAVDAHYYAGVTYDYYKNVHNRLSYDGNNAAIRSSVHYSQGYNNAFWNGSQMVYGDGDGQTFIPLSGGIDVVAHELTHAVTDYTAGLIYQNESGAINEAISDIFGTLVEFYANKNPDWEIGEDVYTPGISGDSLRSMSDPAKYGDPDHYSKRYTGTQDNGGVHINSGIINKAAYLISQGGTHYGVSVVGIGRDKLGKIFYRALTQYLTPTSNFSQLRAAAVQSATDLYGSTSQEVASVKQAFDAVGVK
Experimental: The metalloenzyme thermolysin was assayed by a procedure substantially similar to that described by Feder et al., Biochemistry 9:2784 (1970). Substrate, furylacryloyl-glycyl-leucinamide, and thermolysin were obtained from commercial sources. Assay solutions consisted of furylacryloyl-glycyl-leucinamide (0.100 mL, 8.0×10^-3 M in N,N-dimethylformamide) and 1.90 mL of 0.50M Tris buffer, pH 7.5, containing 0.10M NaCl and 0.010M CaCl2. Either 0.100 mL of dimethylsulfoxide or 0.100 mL of dimethylsulfoxide containing inhibitor was added and the reaction was initiated by the addition of 0.020 mL of thermolysin (1.0 mg/mL). The rate of hydrolysis was monitored by measuring the decrease in absorbance at 345 nm.

[1] = biological target: Porcine pancreatic elastase (Sus scrofa, UniProt P00772); test: Inhibition of pancreatic elastase
Experimental: Porcine pancreatic elastase (9.8 U/mg.) was obtained from commercial sources. […] Reactions were initiated by addition of 0.5 μg of elastase in 0.020 mL of 0.020M sodium acetate buffer, pH 6.0, and hydrolysis of substrate was monitored spectrophotometrically at 405 nm at 25° C. Assay results are set forth in Table 4, below, expressed as percentages of activity of control mixtures to which no inhibitor was added: […]

porcine pepsin = porcine pepsin (Sus scrofa, UniProt P00791); test: Inhibition of pepsin; conditions: Conc. 5.0 × 10^-4 M
Experimental: Pepsin activity was assayed by a procedure substantially similar to that described by Rich, et al., Biochem. Pharmac. 29:2205 (1980). Substrate, […].2 trifluoroacetate, and porcine pepsin were obtained from commercial sources. Assay solutions, in a volume of 2.00 mL, contained 2.0×10^-4 M substrate in 0.040M sodium formate buffer, pH 4.0, and 0.050 mL of inhibitor solutions in dimethylsulfoxide. Assays were initiated by addition of 0.020 mL of pepsin (0.10 mg/mL), and hydrolysis of substrate was monitored by measuring the increase in absorbance at 310 nm on a spectrophotometer.

neutrophil elastase = biological target: T2, neutrophil elastase (Homo sapiens, UniProt P08246); test: Inhibition of neutrophil elastase, additional peptide inhibitors preincubated in phosphate buffer (Table 3); design: Neutrophil elastase was prepared by the procedure described by Baugh. et al; from tissue
T2 sequence (P08246 30-267): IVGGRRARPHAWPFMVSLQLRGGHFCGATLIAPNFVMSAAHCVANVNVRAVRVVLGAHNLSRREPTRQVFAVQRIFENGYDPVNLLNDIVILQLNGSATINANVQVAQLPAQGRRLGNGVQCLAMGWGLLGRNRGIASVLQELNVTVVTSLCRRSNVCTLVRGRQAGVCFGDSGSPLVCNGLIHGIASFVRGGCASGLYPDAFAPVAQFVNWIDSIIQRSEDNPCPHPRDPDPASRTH
Experimental: Additional peptide inhibitors were evaluated by a procedure similar to that described above. Stock solutions of inhibitors (1.00 mM) were prepared in dimethylsulfoxide and compounds were diluted to 0.10 mM with […], pH 7.5, yielding the free boronic acid. After incubation for one hour at about 23°, inhibitors were added to assay solutions (2.00 mL) consisting of […] MeOSuc-Ala-AlaProVal-p-nitroanilide in 0.10M Hepes buffer, pH 7.5, containing 0.50M NaCl. Assays were initiated by addition of 0.50 μg neutrophil elastase. Control assays without inhibitor indicated an initial velocity of 0.0195 min^-1. The value "k" in Table 3, below, is an estimate of the first order rate constant for time-dependent inhibition, as described above for MeOSuc-AlaAlaPro-Boroval-OH (Table 1).

α-chymotrypsin = biological target: T3, α-chymotrypsin (Bos taurus, UniProt P00766); test: Titration of α-chymotrypsin
T3 construct: purchased
Experimental: In these experiments, α-chymotrypsin, obtained from commercial sources, was standardized by titration with various concentrations of MeOSuc-AlaAlaPro-Borophe-diethanolamine. In each case, enzyme was incubated with inhibitor for 5 minutes at 23°, in 0.01M Hepes buffer, pH 7.5, containing 0.50M NaCl and 10% dimethylsulfoxide. Aliquots were then removed and assayed for enzyme activity.

Sequence of porcine pepsin (P00791 60-385): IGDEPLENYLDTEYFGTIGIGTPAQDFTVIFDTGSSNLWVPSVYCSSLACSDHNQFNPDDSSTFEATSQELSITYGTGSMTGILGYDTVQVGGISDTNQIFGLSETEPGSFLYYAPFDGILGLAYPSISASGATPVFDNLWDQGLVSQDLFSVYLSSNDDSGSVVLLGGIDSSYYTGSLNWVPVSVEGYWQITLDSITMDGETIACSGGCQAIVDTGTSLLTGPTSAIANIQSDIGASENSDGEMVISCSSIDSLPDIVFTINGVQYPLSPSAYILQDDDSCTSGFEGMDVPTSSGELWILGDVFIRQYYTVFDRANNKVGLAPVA
Sequence of Porcine pancreatic elastase (P00772 27-266): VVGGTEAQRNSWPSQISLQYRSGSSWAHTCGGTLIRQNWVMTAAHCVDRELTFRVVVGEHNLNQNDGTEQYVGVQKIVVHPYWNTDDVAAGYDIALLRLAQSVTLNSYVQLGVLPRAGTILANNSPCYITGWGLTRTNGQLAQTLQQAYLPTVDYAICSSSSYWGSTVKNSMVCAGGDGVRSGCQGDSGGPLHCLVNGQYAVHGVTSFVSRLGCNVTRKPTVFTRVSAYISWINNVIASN

SMILES: CC(NC(=O)C(C)NC(=O)OC(C)(C)C)B1OCCNCCO1 (stereo not drawn) [Boc--Ala--Boroala--diethanolamine, Boc-Ala-Boroala-diethanolamine]
% Activity (thermolysin): 99%
Activity % of Control ([1]; inhibitor 5.0 × 10^5 nM, 1.0 min, time dependency not observed): 67 % of Control
% Activity (porcine pepsin): 85%

SMILES: CC(NC(=O)C(C)NC(=O)OC(C)(C)C)B1OC(C)(C)C(C)(C)O1 (stereo not drawn) [Boc--Ala--Boroala--pinacol, Boc-Ala-Boroala-pinacol]
% Activity (thermolysin): 102%
% Activity (porcine pepsin): 90%

% Initial Activity (neutrophil elastase; Conc. 2.0 × 10^-7 M): 54%
k, first order rate constant for time-dependent inhibition (neutrophil elastase; Conc. 2.0 × 10^-7 M): 0.35 min⁻¹
SMILES: CC(C)C(NC(=O)C1CCCN1C(=O)C(Cc1ccccc1)NC(=O)OC(C)(C)C)B(O)O [Boc--D-Phe--Pro--Boroval--OH]

% Activity (porcine pepsin): 90%
SMILES: CC(C)CC(NC(=O)CNC(=O)OC(C)(C)C)B1OCCNCCO1 (stereo not drawn) [Boc--Gly--Boroleu--diethanolamine, Boc-Gly-Boroleu-diethanolamine]

% Activity (porcine pepsin): 87%
SMILES: CC(C)CC(NC(=O)CNC(=O)OC(C)(C)C)B1OC(C)(C)C(C)(C)O1 (stereo not drawn) [Boc--Gly--Boroleu--pinacol, Boc-Gly-Boroleu-pinacol]

% Activity (porcine pepsin): 71%
SMILES: CC(C)CC(NC(=O)CNC(=O)C(Cc1ccccc1)NC(=O)OC(C)(C)C)B1OCCNCCO1 (stereo not shown) [Boc--Phe--Gly--Boroleu--diethanolamine, Boc-PheGly-Boroleu-diethanolamine]

% Activity (porcine pepsin): 68%
SMILES: CC(C)CC(NC(=O)CNC(=O)C(Cc1ccccc1)NC(=O)OC(C)(C)C)B1OC(C)(C)C(C)(C)O1 (stereo not shown) [Boc--Phe--Gly--Boroleu--pinacol, Boc-PheGly-Boroleu-pinacol]

SMILES: CC(C)C[C@H](NC(=O)CNC(=O)[C@@H](N)Cc1ccccc1)B1OC(C)(C)C(C)(C)O1.O=C(O)C(F)(F)F [H--Phe--Gly--Boroleu--pinacol, H-PheGly-Boroleu-pinacol.trifluoroacetate]
% Activity (porcine pepsin): 69%

% Initial Activity (neutrophil elastase; Conc. 2.0 × 10^-6 M): 54%
SMILES: CC(C)C(NC(=O)C(CCC(=O)O)NC(=O)CNC(=O)C(N)Cc1ccccc1)B(O)O (stereo not shown) [H--Phe--Gly--Glu--Boroval--OH]

% Initial Activity (neutrophil elastase; Conc. 1.0 × 10^-6 M): 75%
SMILES: CC(C)C(NC(=O)C(CO)NC(=O)CNC(=O)C(N)Cc1ccccc1)B(O)O (stereo not shown) [H--Phe--Gly--Ser--Boroval--OH]

% Initial Activity (neutrophil elastase; Conc. 1.0 × 10^-7 M): 60%
k, first order rate constant for time-dependent inhibition (neutrophil elastase; Conc. 1.0 × 10^-7 M): 0.28 min⁻¹
SMILES: CCC(C)C(NC(=O)C1CCCN1C(=O)C(C)NC(=O)C(C)NC(=O)CCC(=O)OC)B(O)O (stereo not shown) [MeOSuc--Ala--Ala--Pro--Boroile--OH]

% Initial Activity (neutrophil elastase; Conc. 5.0 × 10^-8 M): 59%
k, first order rate constant for time-dependent inhibition (neutrophil elastase; Conc. 5.0 × 10^-8 M): 0.54 min⁻¹
SMILES: COC(=O)CCC(=O)NC(CCCCNC(=O)OCc1ccccc1)C(=O)NC(C)C(=O)N1CCCC1C(=O)NC(B(O)O)C(C)C (stereo not shown) [MeOSuc--Lys(Z)--Ala--Pro--Boroval--OH, MeOSuc--Lys(Z)--AlaPro--Boroval--OH]

% Initial Activity (neutrophil elastase; Conc. 1.0 × 10^-6 M): 52%
k, first order rate constant for time-dependent inhibition (neutrophil elastase; Conc. 1.0 × 10^-6 M): 0.18 min⁻¹
SMILES: COC(=O)CCC(=O)NC(Cc1ccccc1)C(=O)NCC(=O)NC(CCC(=O)O)C(=O)NC(B(O)O)C(C)C (stereo not shown) [MeOSuc--Phe--Gly--Glu--Boroval--OH]

% Initial Activity (neutrophil elastase; Conc. 5.0 × 10^-7 M): 78%
k, first order rate constant for time-dependent inhibition (neutrophil elastase; Conc. 5.0 × 10^-7 M): 0.26 min⁻¹
SMILES: COC(=O)CCC(=O)N[C@@H](Cc1ccccc1)C(=O)NCC(=O)N[C@@H](CO)C(=O)NC(B(O)O)C(C)C (stereo partly shown) [MeOSuc--Phe--Gly--Ser--Boroval--OH]

SMILES: COC(=O)CCC(=O)N[C@@H](C)C(=O)N[C@@H](C)C(=O)N1CCC[C@H]1C(=O)NC(C)B1OCCNCCO1 (stereo partly shown) [MeOSuc-AlaAlaPro-Boroala-diethanolamine]
capacity for inhibition of pancreatic elastase, crystalline versus amorphous sample ([1]; crystalline sample relative to amorphous sample of Example 9): at least 5 fold

% Activity (α-chymotrypsin; α-chymotrypsin 3 μg/mL, inhibitor 25 nM): 68.2%
% Activity (α-chymotrypsin; α-chymotrypsin 3 μg/mL, inhibitor 50 nM): 52.3%
% Activity (α-chymotrypsin; α-chymotrypsin 3 μg/mL, inhibitor 75 nM): 31.8%
% Activity (α-chymotrypsin; α-chymotrypsin 3 μg/mL, inhibitor 100 nM): 18.2%
% Activity (α-chymotrypsin; α-chymotrypsin 15 μg/mL, inhibitor 50 nM): 93.8%
% Activity (α-chymotrypsin; α-chymotrypsin 15 μg/mL, inhibitor 100 nM): 80.4%
% Activity (α-chymotrypsin; α-chymotrypsin 15 μg/mL, inhibitor 200 nM): 65.1%
% Activity (α-chymotrypsin; α-chymotrypsin 15 μg/mL, inhibitor 300 nM): 47.9%
% Activity (α-chymotrypsin; α-chymotrypsin 15 μg/mL, inhibitor 400 nM): 31.6%
% Activity (α-chymotrypsin; α-chymotrypsin 15 μg/mL, inhibitor 500 nM): 15.3%
SMILES: COC(=O)CCC(=O)NC(C)C(=O)NC(C)C(=O)N1CCCC1C(=O)NC(Cc1ccccc1)B1OCCNCCO1 (stereo not shown) [MeOSuc-AlaAlaPro-Borophe-diethanolamine]

% Initial Activity (neutrophil elastase; Conc. 1.0 × 10^-7 M): 61%
k, first order rate constant for time-dependent inhibition (neutrophil elastase; Conc. 1.0 × 10^-7 M): 0.20 min⁻¹
SMILES: CC(C)C(NC(=O)C(CCC(=O)OCc1ccccc1)NC(=O)CNC(=O)C(Cc1ccccc1)NC(=O)OCc1ccccc1)B(O)O (stereo not shown) [Z--Phe--Gly--Glu(OBzl)--Boroval--OH]

% Initial Activity (neutrophil elastase; Conc. 2.0 × 10^-7 M): 62%
k, first order rate constant for time-dependent inhibition (neutrophil elastase; Conc. 2.0 × 10^-7 M): 0.26 min⁻¹
SMILES: CC(C)CC(NC(=O)CNC(=O)C(Cc1ccccc1)NC(=O)OCc1ccccc1)C(=O)NC(B(O)O)C(C)C (stereo not shown) [Z--Phe--Gly--Leu--Boroval--OH]

% Initial Activity (neutrophil elastase; Conc. 2.0 × 10^-7 M): 55%
k, first order rate constant for time-dependent inhibition (neutrophil elastase; Conc. 2.0 × 10^-7 M): 0.37 min⁻¹
SMILES: CC(C)C(NC(=O)C(CCCCNC(=O)OC(C)(C)C)NC(=O)CNC(=O)C(Cc1ccccc1)NC(=O)OCc1ccccc1)B(O)O (stereo not shown) [Z--Phe--Gly--Lys(Boc)--Boroval--OH]

% Initial Activity (neutrophil elastase; Conc. 2.5 × 10^-7 M): 67%
k, first order rate constant for time-dependent inhibition (neutrophil elastase; Conc. 2.5 × 10^-7 M): 0.28 min⁻¹
SMILES: CC(C)C(NC(=O)C(CCCCN)NC(=O)CNC(=O)C(Cc1ccccc1)NC(=O)OCc1ccccc1)B(O)O (stereo not shown) [Z--Phe--Gly--Lys--Boroval--OH]

% Initial Activity (neutrophil elastase; Conc. 2.0 × 10^-7 M): 47%
k, first order rate constant for time-dependent inhibition (neutrophil elastase; Conc. 2.0 × 10^-7 M): 0.18 min⁻¹
SMILES: CC(C)C(NC(=O)C(Cc1ccccc1)NC(=O)CNC(=O)C(Cc1ccccc1)NC(=O)OCc1ccccc1)B(O)O (stereo not shown) [Z--Phe--Gly--Phe--Boroval--OH]

% Initial Activity (neutrophil elastase; Conc. 1.25 × 10^-7 M): 66%
k, first order rate constant for time-dependent inhibition (neutrophil elastase; Conc. 1.25 × 10^-7 M): 0.17 min⁻¹
SMILES: CC(C)C(NC(=O)C(COCc1ccccc1)NC(=O)CNC(=O)C(Cc1ccccc1)NC(=O)OCc1ccccc1)B(O)O (stereo not shown) [Z--Phe--Gly--Ser(OBzl)--Boroval--OH]

% Initial Activity (neutrophil elastase; Conc. 4.0 × 10^-6 M): 51%
SMILES: CC(NC(=O)C1CCCN1C(=O)C(Cc1ccccc1)NC(=O)OCc1ccccc1)C(=O)NC(B(O)O)C(C)C (stereo not shown) [Z--Phe--Pro--Ala--Boroval--OH]
